According to patent US20020111314A1, “Novel stimulation of gene expression and protein synthesis of heat shock protein 72/73 (Hsp 70)” (The Trustees of Columbia University, priority 1995, published 2002):
Numbered stars: 1 amine (or outer) side, 2 acyl side, 3 side chain; on linkers, the order of the positions; unused ones are H or OH. Bridge positions count the residues as written; N and C are the ends. Square brackets hold non-standard residues; d marks the D form. Peptide text beside a SMILES is read from it. I, II: the chains in the order shown. * marks the point of attachment. Actinocin(9to1) = Cc1c2oc3c(C)ccc(C(=O)[*:1])c3nc-2c(C(=O)[*:2])c(N)c1=O; Sta = CC(C)C[C@H](N)[C@@H](O)CC(=O)O; NMeV = CN[C@H](C(=O)O)C(C)C; Isovaleryl = CC(C)CC(=O)*; Cbz = O=C(OCc1ccccc1)*; Sar = CNCC(=O)O

Legend:
Format in all cases: cell-based, human
Hsp70 = Hsp70 induction in HepG2 cells ([3H]-leucine labeling, denaturing immunoprecipitation); details: HepG2; for induction of Hsp70 by protease inhibitors (FIG. 3A): 4 h pre-treatment, ALLN 40, ALLM 40, leupeptin 50, pepstatin A 50, E-64d 25 μg/ml, PMSF 1 mM, aprotinin 100 KIU/ml
Method: HepG2 cells were grown up to 95% confluence and then preincubated for 4 hours in a 37° C. incubator with serum-free minimum essential medium (MEM), followed by radiolabeling with 3H-leucine (150 μCi/ml) dissolved in serum-free, leucine-free medium. Preincubation and labeling medium each contained 1.5% bovine serum albumin (BSA) plus different concentrations of ALLN as indicated. After labeling, cells were collected and lysed, and Hsp70 was immunoprecipitated under denaturing conditions as described under Experimental Details. Cell lysates containing an equal amount of TCA-insoluble radioactivity were used for immunoprecipitation. (A): The immunoprecipitates were analyzed by sodium dodecyl sulfate-polyacryamide gel electrophoresis (SDS-PAGE) and fluorography. Numbers on the left-hand side denote molecular markers. (B): The Hsp70 radioactivity was quantitated by scintillation counting and plotted. All the values were presented as means±SD from three individual culture dishes.
(§1) FIGS. 3A-3B: Effects of the other protease inhibitors on Hsp70 biosynthesis in HepG2 cells. HepG2 cells were preincubated in serum-free MEM containing either 1.5% BSA alone (Control), or BSA plus 40 μg/ml of ALLN, 40 μg/ml of ALLM, 50 μg/ml of leupeptin, 50 μg/ml of pepstatin A, 25 μg/ml of E-64d, 1 mM of phenylmethylsulfonyl fluoride (PMSF), 100 KIU/ml of apotinin, 1 mM of Benzamidine (Benz), 200 μM of calpain inhibitor peptide (CIP). Radiolabeling (in the presence of protease inhibitors), lysis and immunoprecipitation were performed as described in FIG. 1. The Hsp70 specific radioactivity (A) and the amount of total incorporated radioactivity (TCA-cpm) (B) were compared with each other. All the values were presented as the mean±SD from three individual culture dishes.
FIGS. 9A-9B: Effects of proteasome inhibitors on Hsp70 induction. HepG2 cells were preincubated with the proteasome inhibitors MG132 at a final concentration of either 10 μM or 30 μM (A), or lactacystin at 10 μM (B) for 4 hours under conditions described in FIG. 3. These cells were then subjected to radiolabeling (30 min), cell lysis, and immunoprecipitation with anti-Hsp70 antibody. The experiments with MG132 (A) were repeated twice; the effects of lactacystin (B) were studied in triplicate culture dishes.
ALLN, leupeptin, mouse anti-human Hsp72/73 monoclonal antibody, a secondary antibody conjugated with horseradish peroxidase (HRP) (goat anti-rabbit immunoglubin G [IgG]), and rabbit anti-rat IgG antibody were from Boehringer Mannheim Co. Anti-Human Hsp25 and anti-human Hsp60 monoclonal antibodies, ALLM, Calpain inhibitor peptide (CIP), dimethyl sulfoxide (DMSO) and dithiothreitol (DTT) were from Sigma. Human Hsp70 oligonucleotide probe was from Oncogene Science. This oligonucleotide was ^32P labeled at the 5′-end by T4 Kinase, which was from Biolabs. ^32P was from ICN Pharmaceutical Inc. L-[4,5-^3H] leucine was from Amersham Co. Anti-human Bip (immunoglobulin heavy chain binding protein, also called Grp78), anti-human Hsp27, anti-human Hsp60, and anti-human Hsp90 monoclonal antibodies were from Stress Genes. Anti-human Hsp86 and Hsp104 antibodies were from Affinity Bioreagent Inc. Nitrocellular transfer and immobilization membranes were from Schleicher & Schuell, Keene, N.H. RNA extraction kits were from Biotect, Tex. The polyclonal antibody against the human HSF1 protein was a generous gift from Dr. Carl Wu of the National Institute of Health (Rabindran, et al., 1993). Ethylene glycol bis(succunimidylsuccinate) (EGS) was from Pierce. Cbz-leucyl-leucyl-leucinal (MG132) was a gift of Dr. H. Ploegh at the Massachusetts Institute of Technology. All the other tissue culture supplies and chemicals were obtained from supplies as previously described (Dixon, et al., 1991). The HepG2 cell culture conditions were maintained as previously described (Dixon, et al., 1991).

HepG2 cells = assay: Total incorporation of radiolabel (TCA cpm) as indicator of cell toxicity in HepG2 cells; details: MG132 10 or 30 μM, lactacystin 10 μM, data not shown
Method: as §1
Preincubation and labeling media each contained either 1.5% bovine serum albumin (BSA) alone, or BSA plus ALLN (40 μg/ml except as otherwise indicated), or BSA plus other protease inhibitors at concentrations indicated in the figure legends. At the indicated times, cells were removed from the 37° C. incubator and placed on ice, washed with cold phosphate-buffer saline (PBS) twice and lysed with lysis buffer containing 1% Triton X-100 (TX100), 1% deoxycholic acid (DOC) and 0.1% SDS in PBS containing proteinase inhibitors: 2 mM phenylmethylsulfonyl fluoride (PMSF); 2 μg/ml ALLN; 2 μg/ml leupeptin; and 2 μg/ml aprotinin. After a 30 min. incubation with lysis buffer at 4° C., the lysates were centrifuged at 14,000 g in a microcentrifuge for 5 min., and the supernatants were adjusted to 1% SDS concentration and boiled for 5 min. to denature the proteins. 1% TX100 was then added to dilute the lysates to a final concentration of 0.1% SDS. Cell lysates containing equal amounts of trichloroacetic acid (TCA)-insoluble radioactivity were used for immunoprecipitations by incubating with individual monoclonal antibody (1 μg/ml) for 2.5 hours at 4° C. Protein-A Sepharose 4B was added afterwards and the lysates incubated for another 1.5 hours at 4° C. to collect the immunocomplexes. […]

hsp70, i.e. hsp72, mRNA = assay: Northern blot of hsp70 (hsp72) mRNA in HepG2 cells; details: ALLN 40 μg/ml plus actinomycin D 10 μg/ml or cycloheximide 50 μg/ml, 4 hours
Method: After 4 hours treatment at 37° C., cells were harvested. (B). […] The total RNA was prepared, and equal amounts of the samples were loaded and run on a 1% formaldehyde-agarose gel, blotted onto a nylon membrane, and subsequently hybridized with specific synthetic oligonucleotide probes for hsp70 mRNA as described under Experimental Details. The position of 28S and 18S rRNA are shown for reference.
Equal amounts of tRNA samples (10 μg) were size-fractionated on a 1% agarose-formaldehyde gel according to the methods described (Maniatis, et al., 1982) and transferred to a piece of QIAGEN plus nylon membrane. To determine loading and transfer efficiency, RNA was stained with ethidium bromide before and after transfer. The membrane was baked for 30 min. at 80° C. in vacuo (a vacuum) followed by UV cross-linking. It was then incubated for 4 hours at 65° C. in a prehybridization mixture containing 10% dextran sulfate, 1% SDS, 1M sodium chloride, 50 mM Tris-HCl (pH 7.5) and 100 μg/ml denatured salmon sperm DNA. […] The membrane was then washed four times with 2×SSC, 0.1% SDS at room temperature, one time at 65° C. for 30 min., and one time at room temperature again for 5 min., and finally rinsed with 2×SSC at room temperature.

CC(=O)N[C@@H](CC(C)C)C(=O)N[C@@H](CC(C)C)C(=O)N[C@H](C=O)CCCNC(=N)N [Leupeptin, leupeptin] was tested, and the “induction of Hsp70 by protease inhibitors (FIG. 3A)” value (Hsp70) was “ineffective”.
In the case of aprotinin, the “induction of Hsp70 by protease inhibitors (FIG. 3A)” value (Hsp70) is reported as “No induction”.
In the case of O=S(=O)(F)Cc1ccccc1 [PMSF, phenylmethylsulfonyl fluoride], the “induction of Hsp70 by protease inhibitors (FIG. 3A)” value (Hsp70) is reported as “No induction”.
CC(C)C[C@@H](C=O)NC(=O)[C@H](CC(C)C)NC(=O)[C@H](CC(C)C)NC(=O)OCc1ccccc1 [MG132, Cbz-leucyl-leucyl-leucinal] (Cbz-Leu-Leu-Leu-aldehyde) was tested, and the “induction of Hsp70 levels by proteasome inhibitors (FIG. 9)” value (Hsp70; 4 hours, MG132 10 μM or 30 μM, lactacystin 10 μM, 30 min labeling) was “induced Hsp70 levels dramatically” and the “toxicity to the cells (TCA-precipitable radioactivities)” value (HepG2 cells) was “without obvious toxicity”.
In the case of CC(C)CC(=O)N[C@H](C(=O)N[C@H](C(=O)N[C@@H](CC(C)C)[C@@H](O)CC(=O)N[C@@H](C)C(=O)N[C@@H](CC(C)C)[C@@H](O)CC(=O)O)C(C)C)C(C)C [pepstatin] (Isovaleryl-VV[Sta]A[Sta]-OH), the “induction of Hsp70 by protease inhibitors (FIG. 3A)” value (Hsp70) is reported as “No induction”.
In the case of Cc1c2oc3c(C)ccc(C(=O)N[C@@H]4C(=O)N[C@H](C(C)C)C(=O)N5CCC[C@H]5C(=O)N(C)CC(=O)N(C)[C@@H](C(C)C)C(=O)O[C@@H]4C)c3nc-2c(C(=O)N[C@@H]2C(=O)N[C@H](C(C)C)C(=O)N3CCC[C@H]3C(=O)N(C)CC(=O)N(C)[C@@H](C(C)C)C(=O)O[C@@H]2C)c(N)c1=O [actinomycin D] (I: T[dV]P[Sar][NMeV] / II: T[dV]P[Sar][NMeV]; ester I:1-I:C, II:1-II:C; linker I:N-II:N via Actinocin(9to1)), the “effect of co-treatment on ALLN-induced increase in hsp72 mRNA” value (hsp70, i.e. hsp72, mRNA) is reported as “abolished the effects of ALLN”.
